Results reported in publication PMC8525588, “Direct targeting of wild-type glucocerebrosidase by antipsychotic quetiapine improves pathogenic phenotypes in Parkinson’s disease models” (JCI Insight, 2021).
pKd: −log10 of the molar value.

Target: T1, β-glucocerebrosidase (GCase) (Homo sapiens, UniProt P04062)
T1 construct: gene GBA1
T1 sequence (P04062 40-536): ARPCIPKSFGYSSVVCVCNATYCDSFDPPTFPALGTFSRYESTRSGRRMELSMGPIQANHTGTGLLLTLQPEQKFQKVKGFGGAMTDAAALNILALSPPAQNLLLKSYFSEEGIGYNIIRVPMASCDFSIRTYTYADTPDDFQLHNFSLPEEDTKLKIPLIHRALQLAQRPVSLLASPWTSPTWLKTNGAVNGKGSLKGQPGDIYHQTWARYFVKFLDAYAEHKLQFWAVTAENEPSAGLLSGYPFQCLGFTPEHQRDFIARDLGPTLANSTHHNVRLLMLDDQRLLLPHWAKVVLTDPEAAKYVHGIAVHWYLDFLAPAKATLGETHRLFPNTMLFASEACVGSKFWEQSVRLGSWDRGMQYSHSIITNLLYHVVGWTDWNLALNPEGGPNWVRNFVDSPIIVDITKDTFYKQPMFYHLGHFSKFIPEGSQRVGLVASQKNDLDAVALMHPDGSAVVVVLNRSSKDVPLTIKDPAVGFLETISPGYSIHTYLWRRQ
Assay: biochemical

pKd: 5.30
Compound: OCCOCCN1CCN(C2=Nc3ccccc3Sc3ccccc32)CC1 [quetiapine]
